{"source": "PubChem BioAssay (NCI)", "experiment_in_all_cases": "NCI tumour cell line growth inhibition, 48 h", "key": {"P388/ADR leukemia": {"tested_on": "P388/ADR leukemia"}, "SN12K1 renal": {"tested_on": "SN12K1 renal"}, "M14 melanoma": {"tested_on": "M14 melanoma"}, "MDA-MB-435": {"tested_on": "MDA-MB-435"}, "SR leukemia": {"tested_on": "SR leukemia"}}, "note": "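Step 1: Grow cells in 96-well plates. Step 2: Expose to compound for 48 hours at 5 concentrations. Step 3: Interpolate endpoints linearly; if unreached, use highest concentration. The concentration for full growth arrest is given as TGI.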", "data": [{"smiles": "COc1cc(O)c(Cc2ccccc2O)c(O)c1C(=O)CCc1ccccc1", "values": [{"measurement": "TGI", "setting": "P388/ADR leukemia", "value": 14, "unit": "µM"}, {"measurement": "TGI", "setting": "SN12K1 renal", "value": 19.5, "unit": "µM"}]}, {"smiles": "COC(=O)c1c(O)ccc2c1c1c(n2Cc2cccc(C)c2)C(=O)c2ccccc2C1", "values": [{"measurement": "TGI", "setting": "M14 melanoma", "value": 47.1, "unit": "µM"}, {"measurement": "TGI", "setting": "MDA-MB-435", "value": 42.7, "unit": "µM"}, {"measurement": "TGI", "setting": "SR leukemia", "value": 29.4, "unit": "µM"}]}]}
